Like-named read-outs stand apart in the source and are kept apart here. Blank lines part the entries; values can stand above or below the molecule they belong to.
Legend:
[1] = In vitro microsomal stability, rat; assay type: in vitro ADME; settings: for microsomal stability (in words) / % of compound remaining when incubated in rat liver microsomes with NADPH: rat liver microsomes; for Microsomal stability, % remaining: Rat Microsome, same batch; for half-life: rat, liver microsomes, rat liver microsomes with NADPH
[2] = Pharmacokinetic studies in rats; assay type: in vivo, rat; settings: for oral bioavailability / oral pharmacokinetics in rats (in words): oral dosing
Experimental: Pharmacokinetic studies on MDM2 inhibitors were carried out in rat. For comparison, the MDM2 inhibitor, AT-219, was also studied.

[3] = system: Isogenic HCT-116 colon cancer cell lines; assay: cells; assay type: cell-based; settings: Homo sapiens, cell growth;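 also: cells grown in 96-well plates in McCoy's 5A medium with 10% FBS, exposed to compound for 4 days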
Experimental: Cells were seeded in 96-well flat bottom cell culture plates at a density of 2−3×10^3 cells/well with compounds and incubated for 4 days.

[4] = target: recombinant human His-tagged MDM2 protein (residues 1-118) (Homo sapiens (Human), UniProt Q00987); assay: Fluorescence-polarization MDM2 binding assay; settings: Table 19A; FP binding assay; read-out: MDM2 IC50;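 also: fluorescence polarization read after three hours of incubation in potassium phosphate buffer containing bovine gamma globulin and Triton X-100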
Experimental: The assay was performed in the buffer: 100 mM potassium phosphate, pH 7.5; 100 μg/mL bovine gamma globulin; 0.02% sodium azide, 0.01% Triton X-100) and the polarization values were measured after 3 h of incubation using an ULTRA READER (Tecan U.S. Inc., Research Triangle Park, N.C.). […] The Kd value was calculated using the equation: Kd value=IC50−L0/2.
The polarization values were measured after 3 h of incubation. […] Curve fitting was performed using [sequence] PRISM software (GraphPad Software, Inc., San Diego, Calif.). […] Compounds shown in Tables 19A-D as the free base were tested either as the free base or as the CF3CO2H (TFA) or HCl salt.

[5] = In vitro microsomal stability, human; assay type: in vitro ADME; settings: for Microsomal stability, % remaining: Human Microsome, same batch; for half-life: human, liver microsomes, human liver microsomes with NADPH
[6] = system: cancer cell lines with wild-type p53 / mutated or deleted p53 (ATCC); assay: Cell growth assay (WST-8), other cancer cell lines; assay type: cell-based; settings: Homo sapiens
[7] = HCT-116, read-out: HCT-116 (p53-/-) IC50, Table 19A, HCT-116 p53-/-
[8] = HCT-116, read-out: HCT-116 (p53 wild-type) IC50, Table 19A, HCT-116 p53 wild-type
[9] = LNCaP, Table 19A, LNCAP cells, p53 wild-type, cell growth, read-out: LNCAP (p53 wild-type) IC50
[10] = PC-3, Table 19A, PC-3 cells, deleted p53, cell growth, read-out: PC-3 (deleted p53) IC50
[11] = rat, plasma, male rats, oral dose 15 mg/kg
[12] = SJSA-1, Table 19A, SJSA-1 cells, p53 wild-type, cell growth, read-out: SJSA-1 (p53 wild-type) IC50

recombinant human His-tagged MDM2 protein (residues 1-118), sequence (Q00987 1-118): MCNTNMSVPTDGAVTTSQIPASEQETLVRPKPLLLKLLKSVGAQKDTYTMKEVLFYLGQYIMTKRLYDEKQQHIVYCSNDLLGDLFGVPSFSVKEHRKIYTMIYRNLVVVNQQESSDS

% of compound remaining when incubated in rat liver microsomes ([1]; Table 16, 0 min): 100%
% of compound remaining when incubated in rat liver microsomes ([1]; Table 16, 4 min): 96.3%
% of compound remaining when incubated in rat liver microsomes ([1]; Table 16, 6 min): 95.6%
% of compound remaining when incubated in rat liver microsomes ([1]; Table 16, 10 min): 87.8%
% of compound remaining when incubated in rat liver microsomes ([1]; Table 16, 15 min): 86.5%
% of compound remaining when incubated in rat liver microsomes ([1]; Table 16, 30 min): 82.7%
% F ([2]; male rats, oral dose 25 mg/kg): 14%
Cmax ([2]; male rats, oral dose 25 mg/kg): 120 ± 112 ng/mL
T1/2 ([2]; male rats, oral dose 25 mg/kg): 426 ± 108 min
Structure (SMILES): CN1CCC(CCNC(=O)C2NC(CC(C)(C)C)C3(C(=O)Nc4cc(Cl)ccc43)C2c2cccc(Cl)c2F)CC1 (stereo not shown) [MI-122]
microsomal stability (in words) [1]: improved rat microsomal stability over MI-219
oral bioavailability / oral pharmacokinetics in rats (in words) [2]: much inferior oral pharmacokinetic parameters

Structure (SMILES): CC(C)(C)C[C@H]1N[C@@H](C(=O)NCC[C@H](O)CNC(C)(C)C)[C@H](c2cccc(Cl)c2)[C@@]12C(=O)Nc1cc(Cl)c(F)cc12 [MI-519-24]
IC50 [3, 7]: 6500 ± 700 nM
IC50 [3, 8]: < 2000 nM
IC50 [4]: < 2000 nM
Microsomal stability, % remaining ([1]; 0 min): 100.00%
Microsomal stability, % remaining ([1]; 5 min): 102.16%
Microsomal stability, % remaining ([1]; 10 min): 86.33%
Microsomal stability, % remaining ([1]; 15 min): 75.72%
Microsomal stability, % remaining ([1]; 30 min): 68.24%
Microsomal stability, % remaining ([1]; 45 min): 66.08%
Microsomal stability, % remaining ([1]; 60 min): 61.51%
microsomal stability (in words) [1]: improved stability over MI-219
% of compound remaining when incubated in rat liver microsomes with NADPH ([1]; 0 min): 100.00%
% of compound remaining when incubated in rat liver microsomes with NADPH ([1]; 5 min): 102.16%
% of compound remaining when incubated in rat liver microsomes with NADPH ([1]; 10 min): 86.33%
% of compound remaining when incubated in rat liver microsomes with NADPH ([1]; 15 min): 75.72%
% of compound remaining when incubated in rat liver microsomes with NADPH ([1]; 30 min): 68.24%
% of compound remaining when incubated in rat liver microsomes with NADPH ([1]; 45 min): 66.08%
% of compound remaining when incubated in rat liver microsomes with NADPH ([1]; 60 min): 61.51%
half-life [1]: 48.5 min
Microsomal stability, % remaining ([5]; 0 min): 100.00%
Microsomal stability, % remaining ([5]; 5 min): 57.08%
Microsomal stability, % remaining ([5]; 10 min): 53.92%
Microsomal stability, % remaining ([5]; 15 min): 49.62%
Microsomal stability, % remaining ([5]; 30 min): 47.41%
Microsomal stability, % remaining ([5]; 45 min): 41.18%
Microsomal stability, % remaining ([5]; 60 min): 41.42%
% of compound remaining when incubated in human liver microsomes with NADPH ([5]; 0 min): 100.00%
% of compound remaining when incubated in human liver microsomes with NADPH ([5]; 5 min): 57.08%
% of compound remaining when incubated in human liver microsomes with NADPH ([5]; 10 min): 53.92%
% of compound remaining when incubated in human liver microsomes with NADPH ([5]; 15 min): 49.62%
% of compound remaining when incubated in human liver microsomes with NADPH ([5]; 30 min): 47.41%
% of compound remaining when incubated in human liver microsomes with NADPH ([5]; 45 min): 41.18%
% of compound remaining when incubated in human liver microsomes with NADPH ([5]; 60 min): 41.42%
half-life [5]: 11.2 min
IC50 [6, 9]: < 3000 nM
IC50 [6, 10]: 3700 ± 200 nM
oral bioavailability / oral pharmacokinetics in rats (in words) [2]: much inferior oral pharmacokinetic parameters
bioavailability [2, 11]: 1.1%
half-life [2, 11]: 192 ± 84 min
AUC(0-t) ([2]; rat, plasma, male rats, oral dose 15 mg/kg, read-out: AUC(0-t)): 101 ± 62 µg·h/mL
Cmax ([2]; rat, plasma, male rats, oral dose 15 mg/kg, read-out: Cmax): 35 ± 23 ng/mL

% of compound remaining when incubated in rat liver microsomes ([1]; Table 16, 0 min): 100%
% of compound remaining when incubated in rat liver microsomes ([1]; Table 16, 4 min): 88.4%
% of compound remaining when incubated in rat liver microsomes ([1]; Table 16, 6 min): 77.2%
% of compound remaining when incubated in rat liver microsomes ([1]; Table 16, 10 min): 65.6%
% of compound remaining when incubated in rat liver microsomes ([1]; Table 16, 15 min): 62.3%
% of compound remaining when incubated in rat liver microsomes ([1]; Table 16, 30 min): 60.4%
% F ([2]; male rats, oral dose 25 mg/kg): 31%
Cmax ([2]; male rats, oral dose 25 mg/kg): 274 ± 82 ng/mL
T1/2 ([2]; male rats, oral dose 25 mg/kg): 228 ± 30 min
Structure (SMILES): CN1CCN(CCNC(=O)C2NC(CC(C)(C)C)C3(C(=O)Nc4cc(Cl)ccc43)C2c2cccc(Cl)c2F)CC1 (stereo not shown) [MI-126]
microsomal stability (in words) [1]: improved rat microsomal stability over MI-219
oral bioavailability / oral pharmacokinetics in rats (in words) [2]: much inferior oral pharmacokinetic parameters

% of compound remaining when incubated in rat liver microsomes ([1]; Table 16, 0 min): 100%
% of compound remaining when incubated in rat liver microsomes ([1]; Table 16, 4 min): 63.1%
% of compound remaining when incubated in rat liver microsomes ([1]; Table 16, 6 min): 56.6%
% of compound remaining when incubated in rat liver microsomes ([1]; Table 16, 10 min): 44.4%
% of compound remaining when incubated in rat liver microsomes ([1]; Table 16, 15 min): 30.9%
% of compound remaining when incubated in rat liver microsomes ([1]; Table 16, 30 min): 30.2%
microsomal stability (in words) [1]: inferior microsomal stability to MI-219
% F ([2]; male rats, oral dose 25 mg/kg): 44%
AUC(0-t) ([2]; male rats, oral dose 25 mg/kg): 7207 ± 1492
Cmax ([2]; male rats, oral dose 25 mg/kg): 1913 ± 312 ng/mL
T1/2 ([2]; male rats, oral dose 25 mg/kg): 90.6 ± 7.2 min
oral bioavailability / oral pharmacokinetics in rats (in words) [2]: good oral bioavailability
Structure (SMILES): CC(C)(C)C[C@H]1N[C@@H](C(=O)NCCC2CCC(O)C2)[C@H](c2cccc(Cl)c2)[C@@]12C(=O)Nc1cc(Cl)c(F)cc12 (stereo partly shown) [MI-225]

Structure (SMILES): CC(C)(C)C[C@H]1N[C@@H](C(N)=O)[C@H](c2cccc(Cl)c2)[C@@]12C(=O)Nc1cc(Cl)c(F)cc12 [MI-519-41]
IC50 [3, 7]: 17900 ± 2200 nM
IC50 [3, 8]: 1000 ± 300 nM
IC50 [4]: < 1000 nM
% of compound remaining when incubated in rat liver microsomes ([1]; Table 17, 0 min): 100%
% of compound remaining when incubated in rat liver microsomes ([1]; Table 17, 4 min): 84.2%
% of compound remaining when incubated in rat liver microsomes ([1]; Table 17, 6 min): 80.4%
% of compound remaining when incubated in rat liver microsomes ([1]; Table 17, 10 min): 66.1%
% of compound remaining when incubated in rat liver microsomes ([1]; Table 17, 15 min): 55.4%
% of compound remaining when incubated in rat liver microsomes ([1]; Table 17, 30 min): 42.9%
IC50 [6, 9]: 1200 nM
IC50 [6, 10]: 14900 ± 1100 nM
IC50 [6, 12]: 1300 ± 400 nM

Structure (SMILES): CC(C)(C)C[C@H]1N[C@@H](C(=O)NCCCN2CCCC2)[C@H](c2cccc(Cl)c2F)[C@@]12C(=O)Nc1cc(Cl)c(F)cc12 [MI-764]
IC50 [3, 7]: 3800 ± 700 nM
IC50 [3, 8]: 500 ± 200 nM
IC50 [4]: < 1000 nM
% of compound remaining when incubated in rat liver microsomes ([1]; Table 17, 0 min): 100%
% of compound remaining when incubated in rat liver microsomes ([1]; Table 17, 4 min): 87.8%
% of compound remaining when incubated in rat liver microsomes ([1]; Table 17, 6 min): 76.5%
% of compound remaining when incubated in rat liver microsomes ([1]; Table 17, 10 min): 66.5%
% of compound remaining when incubated in rat liver microsomes ([1]; Table 17, 15 min): 63.9%
% of compound remaining when incubated in rat liver microsomes ([1]; Table 17, 30 min): 55.8%
IC50 [6, 9]: 1000 ± 400 nM
IC50 [6, 10]: 2400 ± 400 nM
IC50 [6, 12]: 1200 ± 300 nM

Structure (SMILES): CC(C)(C)C[C@H]1N[C@@H](C(=O)N[C@H]2CC[C@@H](O)C2)[C@H](c2cccc(Cl)c2)[C@@]12C(=O)Nc1cc(Cl)c(F)cc12 [MI-519-27]
IC50 [3, 7]: > 10000 nM
IC50 [3, 8]: < 2000 nM
IC50 [4]: < 1000 nM
% of compound remaining when incubated in rat liver microsomes with NADPH ([1]; 0 min): 100.00%
% of compound remaining when incubated in rat liver microsomes with NADPH ([1]; 5 min): 57.28%
% of compound remaining when incubated in rat liver microsomes with NADPH ([1]; 10 min): 31.78%
% of compound remaining when incubated in rat liver microsomes with NADPH ([1]; 15 min): 19.34%
% of compound remaining when incubated in rat liver microsomes with NADPH ([1]; 30 min): 5.81%
% of compound remaining when incubated in rat liver microsomes with NADPH ([1]; 45 min): 2.49%
% of compound remaining when incubated in rat liver microsomes with NADPH ([1]; 60 min): 2.13%
half-life [1]: 6.05 min
% of compound remaining when incubated in human liver microsomes with NADPH ([5]; 0 min): 100.00%
% of compound remaining when incubated in human liver microsomes with NADPH ([5]; 5 min): 52.96%
% of compound remaining when incubated in human liver microsomes with NADPH ([5]; 10 min): 25.03%
% of compound remaining when incubated in human liver microsomes with NADPH ([5]; 15 min): 11.38%
% of compound remaining when incubated in human liver microsomes with NADPH ([5]; 30 min): 2.30%
% of compound remaining when incubated in human liver microsomes with NADPH ([5]; 45 min): 1.42%
% of compound remaining when incubated in human liver microsomes with NADPH ([5]; 60 min): 0.77%
half-life [5]: 5 min
IC50 [6, 9]: < 2000 nM
IC50 [6, 10]: > 5000 nM
IC50 [6, 12]: < 3000 nM

Source: patent US9079913B2, “Spiro-oxindole MDM2 antagonists” (The Regents of the University of Michigan, priority 2009, dated 2015)
